Measured values as given in publication PMC12508576, “Implementing a trilineage differentiation in the ReproTracker assay for improved teratogenicity assessment” (Frontiers in Toxicology, 2025).
Read-outs that look alike come from different tables or passages of the source.

Legend:
[1] = test system: hiPSCs differentiating into cardiomyocyte-like cells; assay: ReproTracker cardiomyocyte differentiation assay
Method: (§1) Prior to differentiation, the cells were harvested and dissociated into single cells using Gibco™ TrypLE™ Select (ThermoFisher Scientific; Bleiswijk, Netherlands) for 5 min at 37 °C. Cells were seeded in Matrigel™-coated 24-well plates (ThermoFisher Scientific) in mTeSR™1 containing RevitaCell™ Supplement (ThermoFisher Scientific). […] The cells were cultured in this medium until D3. From D3 until the end of the differentiation protocol (D13) (one-step protocol), cells were cultured in N2B27 medium without ROCK inhibitor or LDN193189. In the case of the replating protocol, cells were replated at D7 and grown in the same medium until day 13. At the end of the differentiation, morphology of the cells was assessed using an Operetta CLS (Revvity) instrument. The expected morphology for each of the lineages, to ensure data acceptance and correct differentiations, is further described in Section 2.9 of the methods section. The trilineage differentiation was replicated in 96-well plates (ThermoFisher Scientific and Revvity Phenoplate) using the same differentiation protocols with an adapted number of cells for the seeding. And termination at D14.
(§2) Cells were harvested, and total RNA was isolated using the Maxwell® RSC simply RNA Cells Kit (cat. no.: #AS1390; Promega) on a Maxwell automated purification instrument (Maxwell RSC 48; Promega). […] Each individual primer was paired with its corresponding fluorophore and quencher and adjusted accordingly depending on gene abundance. Primer and probe sequences are described in Supplementary Table S1.
(§3) Data acceptance was based on the appropriate expression of the assessed biomarker genes in the differentiated populations, at appropriate times during differentiation. Failure to observe the expected temporal expression of key, lineage-specific biomarkers, during the cell fate choices associated with each differentiation protocol, would result in the experiment being invalidated.
(§4) To follow morphological changes throughout the hepatocyte and neural differentiation protocol, brightfield images of the cells were acquired after each medium refresh using an iRiS digital cell imaging microscope (Logos Biosystems) or an Operetta CLS (Revvity) instrument. Images were scored based on visual assessment. Cardiac contractability of cardiomyocytes was evaluated visually using an iRiS digital cell imaging microscope (Logos Biosystems).
(§5) Morphologically, cardiomyocytes are expected to group in fiber-like 3D structures that distribute throughout the entire plate. Aside from morphology, an additional criterion for cardiomyocyte differentiation in each experimental setup is for the contracting mature cardiomyocyte cultures exposed to solvent controls, to reach 75%. […] Neural rosettes are recognized by well-defined cell boundaries and multi-layered cultures. Functional/morphological assessment was completed independently from biomarker data analyses. Morphology scores were confirmed by a second person. Failure to observe the anticipated cell morphology/functionality throughout differentiation would result in invalidation of the experiment. Disruption in the morphology of cardiomyocytes is described as a lack of 3D-fibre-like structures in the cultures as well as a clear lack of contractions. Morphologically aberrant hepatocytes are characterized by a lack of polygonal structures with smaller cytoplasm that in the control cultures and the formation of dark cell-dense structures, commonly indicative of clumps of dead cells with big empty spaces between cell colonies.

[2] = test system: hiPSCs differentiating into hepatocyte-like cells; assay: ReproTracker hepatocyte differentiation assay
Method: as §1, §2, §3, §4, §5

[3] = test system: hiPSCs differentiating into neural rosette-like cells
Method: as §1, §2, §3, §4, §5

[4] = cited from earlier work
undifferentiated hiPSCs = assay: Concentration-range selection and cytotoxicity assessment (AlamarBlue); conditions: lowest concentration that induced a maximum of 20% cytotoxicity in hiPSCs, 7 days
Method: In short, hiPSCs were exposed to 20 consecutive concentrations of the test compounds using 1 mM or the maximum soluble concentration as the top concentration. Test compounds were added to the medium prior to the refreshes at D0 and D3. Cytotoxicity was estimated at D7; upon completion of the experiments, cells were incubated with resazurin solution (0.01 mg/mL in PBS) and measured absorbance (excitation 530 nm and emission 590 nm). Results were normalized against vehicle controls (0.1% v/v DMSO).
All compounds were tested at five consecutive concentrations in two-fold dilution steps. The top concentration was determined as the lowest concentration that induced a maximum of 20% cytotoxicity in the concentration range finding experiments. Compounds were then diluted 2-fold using serial dilutions.
Data acceptance for dose-range finding experiments was based on the response to positive and negative assay controls, and compound solubility and cytotoxicity. […] Concentrations of compound(s) inducing cytotoxicity and therefore reducing cell survival below 80% were excluded from further testing in differentiation assays.
Thus, to determine cytotoxicity of the test compounds, undifferentiated hiPSCs were exposed to 20 consecutive concentrations at 2-fold dilutions for 7 days. The lowest concentration that induced a maximum of 20% cytotoxicity in the concentration range finding experiment was applied as top concentration for the differentiation experiments.

[5] = test system: hiPSCs trilineage differentiation (cardiomyocytes, hepatocytes, neural rosette-like cells); assay: ReproTracker trilineage differentiation, overall teratogenicity prediction; conditions: lowest tested concentration with significant decrease of at least one biomarker, trilineage assay; 'N.d. up to x' given as > x
From the text: (§6) In ReproTracker, teratogenicity prediction of test compounds is based on a Weight of Evidence (WoE) approach, which considers both the significant decrease in biomarker expression and the morphological/functional changes following exposure to test compounds throughout differentiation assays.
(§7) This threshold, for any given biomarker, is defined as the average minus one time the standard deviation (SD) of the biomarker expression levels in solvent-exposed control cultures throughout the experiment. Reduced expression of the selected biomarkers below the set threshold in a concentration-dependent manner, upon exposure to a minimum of 2 consecutive non-cytotoxic concentrations would be considered significant (noted as +). A decrease in expression below the threshold without a clear dose-response would lead to an equivocal classification (noted as (+)). An increase in expression or a lack of response would be considered negative (noted as -). Disruption of morphology/functionality of the cultures upon compound exposure at the two highest tested concentrations in all biological replicates is considered as a morphological disruption (noted as +). Absence of significant effects results in a negative score (noted as -).
(§8) For each differentiation assay, the expression of two biomarkers and a morphological/functional read-out are considered. In the hepatocyte and cardiomyocyte differentiation, FOXA2 and BMP4 are considered germ-layer-specific biomarkers, while AFP and MYH6 are considered cell-specific biomarkers, respectively. When applying the WoE approach, the cell-specific biomarkers in hepatocyte and cardiomyocyte differentiation are given higher weight compared to the germ-layer specific biomarkers and morphology/functionality. For the neural differentiation, both PAX6 and NESTIN are given equal weight as they are considered cell-specific markers. In this case, both biomarkers are given higher weight than the morphological read-out.
(§9) Every measurement/observation is assigned a score (positive, negative, or equivocal). […] In the ReproTracker assay, a compound is identified as a teratogen if it receives a positive score in at least one of the trilineage differentiation assays (cardiomyocyte, hepatocyte, or neural differentiation). […] If neither biomarker expression levels nor morphology/functionality are affected in any of the differentiation assays, the response is considered negative.

[6] = test system: hiPSCs differentiating into cardiomyocyte-like cells; conditions: lineage call; footnote b: previously published data; ref Jamalpoor et al., 2022; cited from earlier work
[7] = test system: hiPSCs differentiating into hepatocyte-like cells; conditions: cited from earlier work
[8] = test system: hiPSCs trilineage differentiation (cardiomyocytes, hepatocytes, neural rosette-like cells); conditions: human
From the text: as §6, §7, §8, §9

[9] = read-out: Human therapeutic cmax, Table 1 (R3 I (2021), Schulz et al. (2020) and others)
[10] = lineage call, footnote b: previously published data, ref Jamalpoor et al., 2022
[11] = lineage call (positive/equivocal/negative)

SMILES	ReproTracker results Cardiomyocyte-like cells [1]	ReproTracker results Hepatocyte-like cells [2]	ReproTracker results Neural rosette-like cells [3]	Cmax [4, 9]	ReproTracker results LOAEL [5]	ReproTracker results Cardiomyocyte-like cells [6]	ReproTracker results Hepatocyte-like cells [7, 10]	LOAEL compared with respective human therapeutic Cmax [8]	ReproTracker results LOAEL [8]	other results
O=c1[nH]cc(F)c(=O)[nH]1 [5-Fluorouracil]	Negative	Negative	Negative	400 to 2300 nM	N.d. up to 1.3 µM					top concentration for the differentiation experiments (undifferentiated hiPSCs): 1 µM
Cn1cc[nH]c1=S [Methimazole]			Positive	4400 to 20200 nM		Positive				
NS(=O)(=O)c1cc2c(cc1Cl)NCNS2(=O)=O [Hydrochlorothiazide]			Negative	100 to 200 nM		Positive	Positive			
CC(O)CO (centres unmarked) [1,2-propylene glycol]			Negative	300 to 3100 nM	N.d. up to 1000 µM	Negative	Negative			
CCN(CC)CCNC(=O)c1cc(Cl)c(N)cc1OC [Metoclopramide]			Negative	30 to 500 nM	N.d. up to 62.5 µM	Negative	Negative			
NC(=O)NO [Hydroxyurea]	Negative	Positive	Positive	263000 nM	≤2.0 µM			equal to or below		
CCCCCCCCc1ccc(CCC(N)(CO)CO)cc1 [Fingolimod]			Negative	3 to 50 nM		Positive	Positive	higher	≤0.25 µM	
CN(Cc1cnc2nc(N)nc(N)c2n1)c1ccc(C(=O)N[C@@H](CCC(=O)O)C(=O)O)cc1 [Methotrexate]	Negative	Negative	Negative	20 to 1100 nM				equal to or below	N.d. up to 0.122 µM	top concentration for the differentiation experiments (undifferentiated hiPSCs): 0.1 µM
Cc1ncc(C[n+]2csc(CCO)c2C)c(N)n1 [Thiamine]			Negative	400 nM	N.d. up to 1000 µM	Negative	Negative			
N[C@@H](CC(=O)N1CCn2c(nnc2C(F)(F)F)C1)Cc1cc(F)c(F)cc1F [Sitagliptin]			Negative	100 to 900 nM	N.d. up to 1000 µM	Negative	Negative			
OC(Cn1cncn1)(Cn1cncn1)c1ccc(F)cc1F [Fluconazole]	Negative	Negative	Positive	6500 to 19600 nM					125 µM	NESTIN gene expression at D13 [3]: decreased; PAX6 gene expression at D7 [3]: decreased
Cc1ccc(NC(=O)c2ccc(CN3CCN(C)CC3)cc2)cc1Nc1nccc(-c2cccnc2)n1 [Imatinib]	Negative		Positive	1500 nM				equal to or below	0.1 µM	ReproTracker results Hepatocyte-like cells [2, 11]: Positive
NC(=O)c1ncn([C@@H]2O[C@H](CO)[C@@H](O)[C@H]2O)n1 [Ribavirin]	Negative	Negative	Positive	3200 nM				equal to or below	≤1 µM	
COc1cc(C)c(/C=C/C(C)=C/C=C/C(C)=C/C(=O)O)c(C)c1C [Acitretin]				30 to 900 nM	≤0.2 µM			equal to or below		ReproTracker results Cardiomyocyte-like cells [1, 11]: Positive; ReproTracker results Hepatocyte-like cells [2, 11]: Positive; ReproTracker results Neural rosette-like cells [3, 11]: Positive
C[C@@H]1C[C@H]2[C@@H]3CCC4=CC(=O)C=C[C@]4(C)[C@@]3(F)[C@@H](O)C[C@]2(C)[C@@]1(O)C(=O)CO [Dexamethasone]	Negative	Negative	Positive	100 to 700 nM					1.95 µM	
N#C[C@@H]1CCCN1C(=O)CNC12CC3CC(CC(O)(C3)C1)C2 [Vildagliptin]	Negative		Positive	600 to 1000 nM					125 µM	ReproTracker results Hepatocyte-like cells [2, 11]: Negative
O=C1NC(=O)C(c2ccccc2)(c2ccccc2)N1 [Phenytoin]	Negative	Positive	Positive	39600 to 79300 nM				equal to or below	31.3 µM	NESTIN gene expression at D13 [3]: without affecting; PAX6 gene expression at D7 [3]: downregulated; morphology of neural rosette-like cells [3]: disrupted
Nc1nc2ncc(CNc3ccc(C(=O)N[C@@H](CCC(=O)O)C(=O)O)cc3)nc2c(=O)[nH]1 [Folic acid]			Negative	2 to 10 nM	N.d. up to 1.95 µM		Negative			
CC1=C(/C=C/C(C)=C/C=C/C(C)=C\C(=O)O)C(C)(C)CCC1 [Isotretinoin]	Positive	Positive	Positive	4 to 8 nM				equal to or below	≤0.0041 µM	
CC1(C)S[C@@H]2[C@H](NC(=O)[C@H](N)c3ccc(O)cc3)C(=O)N2[C@H]1C(=O)O [Amoxicillin]			Negative	1400 to 41000 nM		Negative				
CC(=O)CC(c1ccccc1)c1c(O)c2ccccc2oc1=O (centres unmarked) [Warfarin]					62.5 to 250 µM					ReproTracker results Neural rosette-like cells [3, 11]: Negative; ReproTracker results Hepatocyte-like cells [7]: Positive; Cmax ([4]; human, in vivo): 3200 to 9700 nM
